Measured values from US12077503B2, “Substituted cyclic amides and their use as herbicides” (FMC CORPORATION, priority 2015, dated 2024).

How the values were obtained:
Assay type in all cases: in vivo
[1] = test system: ragweed (common ragweed, Ambrosia elatior); test: Test A preemergence; details: Ambrosia artemisiifolia, pre-emergence, 240 h, preemergence, 0 to 100 scale where 0 is no effect and 100 is complete control, read-out: Ragweed plant response rating
Summary of the method: (§1)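 Ratings of 0 (no effect) to 100 (complete control) come from visual comparison with untreated controls roughly 10 d after treatment. Test chemicals, formulated in a non-phytotoxic solvent mixture with surfactant, were applied either as a preemergence directed soil spray on seeded soil or postemergence to one- to two-leaf plants 2 to 10 cm tall.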

[2] = test system: Kochia (Kochia scoparia); test: Test A preemergence; details: Bassia scoparia, pre-emergence, 240 h, preemergence, 0 to 100 scale where 0 is no effect and 100 is complete control, read-out: Kochia plant response rating
Summary of the method: as §1

[3] = test system: ryegrass, Italian (Italian ryegrass, Lolium multiflorum); test: Test A preemergence; details: Lolium multiflorum, pre-emergence, 240 h, preemergence, 0 to 100 scale where 0 is no effect and 100 is complete control, read-out: Ryegrass, Italian plant response rating
Summary of the method: as §1

[4] = test system: barnyardgrass (Echinochloa crus-galli); test: Test A preemergence; details: Echinochloa crus-galli, pre-emergence, 240 h, preemergence, 0 to 100 scale where 0 is no effect and 100 is complete control, read-out: Barnyardgrass plant response rating
Summary of the method: as §1

[5] = test system: pigweed (Amaranthus retroflexus); test: Test A preemergence; details: Amaranthus retroflexus, pre-emergence, 240 h, preemergence, 0 to 100 scale where 0 is no effect and 100 is complete control, read-out: Pigweed plant response rating
[6] = test system: giant foxtail (Setaria faberii); test: Test A preemergence; details: Setaria faberi, pre-emergence, 240 h, preemergence, 0 to 100 scale where 0 is no effect and 100 is complete control, read-out: Foxtail, Giant plant response rating
Summary of the method: as §1

[7] = test system: ragweed (common ragweed, Ambrosia elatior); test: Test A postemergence; details: Ambrosia artemisiifolia, post-emergence, 240 h, postemergence
Summary of the method: as §1

[8] = test system: Kochia (Kochia scoparia); test: Test A postemergence; details: Bassia scoparia, post-emergence, 240 h, postemergence
Summary of the method: as §1

[9] = test system: blackgrass (Alopecurus myosuroides); test: Test A postemergence; details: Alopecurus myosuroides, post-emergence, 240 h, postemergence
Summary of the method: as §1

[10] = test system: Galium (catchweed bedstraw, Galium aparine); test: Test A postemergence; details: Galium, post-emergence, 240 h, postemergence
Summary of the method: as §1

[11] = test system: barnyardgrass (Echinochloa crus-galli); test: Test A postemergence; details: Echinochloa crus-galli, post-emergence, 240 h, postemergence
Summary of the method: as §1

[12] = test system: corn (Zea mays); test: Test A postemergence; details: Zea mays, post-emergence, 240 h, postemergence
Summary of the method: as §1

[13] = test system: pigweed (Amaranthus retroflexus); test: Test A postemergence; details: Amaranthus retroflexus, post-emergence, 240 h, postemergence
Summary of the method: as §1

[14] = test system: giant foxtail (Setaria faberii); test: Test A postemergence; details: Setaria faberi, post-emergence, 240 h, postemergence
Summary of the method: as §1

[15] = test system: wheat (Triticum aestivum); test: Test A postemergence; details: Triticum aestivum, post-emergence, 240 h, postemergence
Summary of the method: as §1

[16] = 125 g ai/ha, visual injury rating, approximately 10 d

CSc1ccccc1NC(=O)[C@H]1C(=O)N(C)CC[C@@H]1c1ccc(C(F)(F)F)cc1 [Compound 1227]
pest or weed control at 125 g/ha [1, 16]: 0% | pest or weed control at 500 g/ha ([1]; 500 g ai/ha): 0% | pest or weed control at 125 g/ha [2, 16]: 0% | pest or weed control at 500 g/ha ([2]; 500 g ai/ha): 0% | pest or weed control at 125 g/ha [3, 16]: 20% | pest or weed control at 500 g/ha ([3]; 500 g ai/ha): 70% | pest or weed control at 125 g/ha [4, 16]: 0% | pest or weed control at 500 g/ha ([4]; 500 g ai/ha): 40% | pest or weed control at 125 g/ha [5, 16]: 30% | pest or weed control at 500 g/ha ([5]; 500 g ai/ha): 60% | pest or weed control at 125 g/ha [6, 16]: 50% | pest or weed control at 500 g/ha ([6]; 500 g ai/ha): 90% | pest or weed control at 125 g/ha ([7]; 125 g ai/ha, visual injury vs untreated controls after approx. 10 d, 0 = no effect, 100 = complete control, read-out: Ragweed plant response rating (0 to 100 scale)): 0% | pest or weed control at 500 g/ha ([7]; 500 g ai/ha, 0 to 100 scale, 0 is no effect, 100 is complete control, read-out: Ragweed plant response rating): 0% | pest or weed control at 125 g/ha ([8]; 125 g ai/ha, visual injury vs untreated controls after approx. 10 d, 0 = no effect, 100 = complete control, read-out: Kochia plant response rating (0 to 100 scale)): 0% | pest or weed control at 500 g/ha ([8]; 500 g ai/ha, 0 to 100 scale, 0 is no effect, 100 is complete control, read-out: Kochia plant response rating): 30% | pest or weed control at 125 g/ha ([9]; 125 g ai/ha, visual injury vs untreated controls after approx. 10 d, 0 = no effect, 100 = complete control, read-out: Blackgrass plant response rating (0 to 100 scale)): 0% | pest or weed control at 500 g/ha ([9]; 500 g ai/ha, 0 to 100 scale, 0 is no effect, 100 is complete control, read-out: Blackgrass plant response rating): 0% | pest or weed control at 125 g/ha ([10]; 125 g ai/ha, visual injury vs untreated controls after approx. 10 d, 0 = no effect, 100 = complete control, read-out: Galium plant response rating (0 to 100 scale)): 0% | pest or weed control at 500 g/ha ([10]; 500 g ai/ha, 0 to 100 scale, 0 is no effect, 100 is complete control, read-out: Galium plant response rating): 0% | pest or weed control at 125 g/ha ([11]; 125 g ai/ha, visual injury vs untreated controls after approx. 10 d, 0 = no effect, 100 = complete control, read-out: Barnyardgrass plant response rating (0 to 100 scale)): 0% | pest or weed control at 500 g/ha ([11]; 500 g ai/ha, 0 to 100 scale, 0 is no effect, 100 is complete control, read-out: Barnyardgrass plant response rating): 70% | plant injury at 125 g/ha ([12]; 125 g ai/ha, visual injury vs untreated controls after approx. 10 d, 0 = no effect, 100 = complete control, read-out: Corn plant response rating (0 to 100 scale)): 0% | plant injury at 500 g/ha ([12]; 500 g ai/ha, 0 to 100 scale, 0 is no effect, 100 is complete control, read-out: Corn plant response rating): 0% | pest or weed control at 125 g/ha ([13]; 125 g ai/ha, visual injury vs untreated controls after approx. 10 d, 0 = no effect, 100 = complete control, read-out: Pigweed plant response rating (0 to 100 scale)): 20% | pest or weed control at 500 g/ha ([13]; 500 g ai/ha, 0 to 100 scale, 0 is no effect, 100 is complete control, read-out: Pigweed plant response rating): 30% | pest or weed control at 125 g/ha ([14]; 125 g ai/ha, visual injury vs untreated controls after approx. 10 d, 0 = no effect, 100 = complete control, read-out: Foxtail, Giant plant response rating (0 to 100 scale)): 0% | pest or weed control at 500 g/ha ([14]; 500 g ai/ha, 0 to 100 scale, 0 is no effect, 100 is complete control, read-out: Foxtail, Giant plant response rating): 0% | plant injury at 125 g/ha ([15]; 125 g ai/ha, visual injury vs untreated controls after approx. 10 d, 0 = no effect, 100 = complete control, read-out: Wheat plant response rating (0 to 100 scale)): 0% | plant injury at 500 g/ha ([15]; 500 g ai/ha, 0 to 100 scale, 0 is no effect, 100 is complete control, read-out: Wheat plant response rating): 0%
